Assay results reported in ChEMBL document CHEMBL3137667, “[Drug-induced liver injury; fourteenth updated edition of the bibliographic database of liver injuries and related drugs]” (Gastroenterol Clin Biol, 2004).
*1 amine or outer side, *2 acyl side, *3 side chain or, on linkers, in order; H or OH if unused. Where a SMILES comes first, the peptide text is derived from it. Bridges are numbered along the chain shown (N, C = ends). Roman numbers before positions name the chains, in order. [ ]: non-standard residue; d: D form. Actinocin(9to1) = Cc1c2oc3c(C)ccc(C(=O)[*:1])c3nc-2c(C(=O)[*:2])c(N)c1=O; NMeV = CN[C@H](C(=O)O)C(C)C; Sar = CNCC(=O)O

Legend:
[1] = human, serum
[2] = human
[3] = Comments (NB not yet translated). [column 'COMMENTAIRES' in source]; conditions: human
[4] = human; remark: listed apart in the source
[5] = human; remark: listed apart in the source
[6] = Highest frequency of moderate liver toxicity observed during clinical trials, expressed as a percentage. [column '% BIOL' in source]; conditions: human
[7] = human; remark: listed apart in the source
[8] = human, serum; remark: listed apart in the source
[9] = Times to onset, minimal and maximal, observed in the indexed observations. [column 'DELAI' in source]; conditions: human
[10] = Highest frequency of acute liver toxicity observed during clinical trials, expressed as a percentage. [column '% AIGUE' in source]; conditions: human
[11] = human; remark: listed apart in the source
[12] = human; remark: listed apart in the source
[13] = human; remark: listed apart in the source
[14] = human, serum, 4383 h
[15] = human; remark: listed apart in the source
[16] = Proposed mechanism(s) of liver damage. [column 'MEC' in source]; conditions: human
[17] = Presence of at least one case with successful reintroduction. [column 'REINT' in source]; conditions: human
[18] = human; remark: listed apart in the source
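Wherever Hepatotoxicity (association with vascular disease) is given: count of indexed literature references reporting vascular liver injury in humans, e.g. peliosis hepatitis, hepatic veno-occlusive disease or Budd-Chiari syndrome.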
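Wherever Hepatotoxicity (benign tumour) is given: value is a count of indexed literature references citing a benign tumour confirmed by histopathology.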
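Wherever Hepatotoxicity (choleostasis) is given: human cholestatic liver injury, shown by histopathology or by peak ALT or AST elevation over alkaline phosphatase ratio below 2, value counts indexed literature reports.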
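Wherever Hepatotoxicity (chronic liver disease) is given: chronic liver injury confirmed by histopathology or persistently raised serum aminotransferase activity beyond 6 months, value given as the count of indexed literature references.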
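Wherever Hepatotoxicity (cirrhosis) is given: value is a count of indexed literature references reporting cirrhosis confirmed by histopathology.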
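Wherever Hepatotoxicity (cytolytic) is given: human cytolytic liver injury, shown by histopathology or by a ratio above 5 of peak ALT or AST elevation to alkaline phosphatase elevation, value counts indexed references.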
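Wherever Hepatotoxicity (granulomatous hepatitis) is given: value is a count of indexed literature references reporting granulomatous liver disease confirmed by histopathology.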
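Wherever Hepatotoxicity (malignant tumour) is given: malignant tumour confirmed by histopathology, value gives the count of indexed literature references reporting it.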
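Wherever Hepatotoxicity (severe hepatitis) is given: human clinical data: severe hepatitis, meaning potentially life-threatening liver failure or clinically observed cases, the value counts how many indexed literature references report it.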
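Wherever Hepatotoxicity (steatosis) is given: steatosis confirmed by histopathology, value is the count of indexed references.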

Compound | Hepatotoxicity (acute) [1] | Hepatotoxicity (steatosis) [2] | Hepatotoxicity (comment) [3] | Hepatotoxicity (association with vascular disease) [4] | Hepatotoxicity (malignant tumour) [5] | Hepatotoxicity (moderate) [6] [%] | Hepatotoxicity (severe hepatitis) [7] | Hepatotoxicity (moderate) [8] | Hepatotoxicity (time to onset) [9] | Hepatotoxicity (acute) [10] [%] | Hepatotoxicity (cirrhosis) [11] | Hepatotoxicity (cytolytic) [12] | Hepatotoxicity (choleostasis) [13] | Hepatotoxicity (chronic liver disease) [14] | Hepatotoxicity (granulomatous hepatitis) [15] | Hepatotoxicity (mechanism) [16] | Hepatotoxicity (successful reintroduction) [17] | Hepatotoxicity (benign tumour) [18] | other results
COc1ccc2c(C(=O)c3ccc(Cl)cc3)c(C)n(CC(=O)O)c2c1 [CLOMETACIN] | 18 | 0 | AC_ANTI-ADN/-ML HLAB8 | 0 | 0 | 0 | 9 | 6 | 1 week - 10 years | 0 | 9 | 14 | 12 | 21 | 0 | Allergic | yes | 0 | 
Nc1ccn([C@@H]2O[C@H](CO)[C@@H](O)[C@@H]2O)c(=O)n1 [CYTARABINE] | 14 | 0 | HCF HNR REACTIVATION_HVB MVO | 7 | 0 |  |  | 33 | 1 cure - 2 cures |  | 0 |  |  | 0 |  |  | yes | 0 | Hepatotoxicity (moderate) ([6]; Liver): 75%; Hepatotoxicity (severe hepatitis) ([7]; Liver): 6; Hepatotoxicity (acute) ([10]; Liver): 28.6%; Hepatotoxicity (cytolytic) ([12]; Liver): 6; Hepatotoxicity (choleostasis) ([13]; Liver): 3; Hepatotoxicity (granulomatous hepatitis) ([15]; Liver): 0; Hepatotoxicity (mechanism) ([16]; Liver): Dose-dependant
Cc1c2oc3c(C)ccc(C(=O)N[C@@H]4C(=O)N[C@H](C(C)C)C(=O)N5CCC[C@H]5C(=O)N(C)CC(=O)N(C)[C@@H](C(C)C)C(=O)O[C@@H]4C)c3nc-2c(C(=O)N[C@@H]2C(=O)N[C@H](C(C)C)C(=O)N3CCC[C@H]3C(=O)N(C)CC(=O)N(C)[C@@H](C(C)C)C(=O)O[C@@H]2C)c(N)c1=O [DACTINOMYCIN] (I: T[dV]P[Sar][NMeV] / II: T[dV]P[Sar][NMeV]; ester I:1-I:C, II:1-II:C; linker I:N-II:N via Actinocin(9to1)) | 7 | 0 | I/RADIOTHERAPIE HNR | 16 | 0 | 12 | 6 | 8 | 3 weeks - 2 months | 8.8 | 0 | 5 | 0 | 1 | 0 | Dose-dependant | yes | 1 | 
C#C[C@]1(O)CC[C@H]2[C@@H]3CCC4=Cc5oncc5C[C@]4(C)[C@H]3CC[C@@]21C [DANAZOL] | 13 | 0 | HNF | 2 | 5 | 42.1 | 2 | 32 | 3 days - 20 years | 9.4 | 0 | 6 | 8 | 0 | 0 | Dose-dependant | yes | 12 | 
